Experimental data: PubChem BioAssay AID328 (DTP/NCI, 2004)
Several values for one entry are separate records, joined by “and”; a condition that tells them apart may be missing. Equal entries are not always repeated. Toxic doses and inconclusive results are not listed.

Tested on: BDF1 mice, P388 leukemia ip, median survival T/C
Experiment: NCI In Vivo Anticancer Drug Screen. Data for tumor model P388 Leukemia (intraperitoneal) in B6D2F1 (BDF1) mice
Settings: endpoint: median survival time, higher = longer survival
Procedure, shortened: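 Steps: implant the tumour, treat one group with compound and another with vehicle, record survival, then divide treated by control.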

[1] = dose: 100.0 mg/kg/injection, schedule: Q04DX002 (ip), vehicle: saline with Tween-80
[2] = dose: 200.0 mg/kg/injection, schedule: Q04DX002 (ip), vehicle: saline with Tween-80
[3] = dose: 400.0 mg/kg/injection, schedule: Q04DX002 (ip), vehicle: saline with Tween-80
[4] = dose: 100.0 mg/kg/injection, schedule: Q04DX003 (ip), vehicle: saline with Tween-80
[5] = dose: 200.0 mg/kg/injection, schedule: Q04DX003 (ip), vehicle: saline with Tween-80
[6] = dose: 100.0 mg/kg/injection, schedule: Q01DX001 (ip), vehicle: saline with Tween-80
[7] = dose: 200.0 mg/kg/injection, schedule: Q01DX001 (ip), vehicle: saline with Tween-80
[8] = dose: 25.0 mg/kg/injection, schedule: Q01DX009 (ip), vehicle: saline with Tween-80
[9] = dose: 50.0 mg/kg/injection, schedule: Q01DX009 (ip), vehicle: saline with Tween-80
[10] = dose: 100.0 mg/kg/injection, schedule: Q01DX009 (ip), vehicle: saline with Tween-80
[11] = dose: 100.0 mg/kg/injection, schedule: Q01DX009 (ip), vehicle: saline
[12] = dose: 100.0 mg/kg/injection, schedule: Q04DX003 (ip), vehicle: Klucel (hydroxypropylcellulose) (HPC)
[13] = dose: 200.0 mg/kg/injection, schedule: Q01DX009 (ip), vehicle: saline
[14] = dose: 200.0 mg/kg/injection, schedule: Q04DX003 (ip), vehicle: Klucel (hydroxypropylcellulose) (HPC)
[15] = dose: 400.0 mg/kg/injection, schedule: Q01DX009 (ip), vehicle: saline
[16] = dose: 400.0 mg/kg/injection, schedule: Q04DX003 (ip), vehicle: Klucel (hydroxypropylcellulose) (HPC)
[17] = dose: 12.5 mg/kg/injection, schedule: Q01DX009 (ip), vehicle: Klucel (hydroxypropylcellulose) (HPC)
[18] = dose: 50.0 mg/kg/injection, schedule: Q01DX009 (ip), vehicle: Klucel (hydroxypropylcellulose) (HPC)

Cc1n[nH]c(=O)c2c3ccccc3nn12
T/C [1]: 103 % of control
T/C [2]: 110 % of control
T/C [3]: 107 % of control

CCCCNC(C)(C)C(=O)c1ccco1
T/C [4]: 86 % of control
T/C [5]: 100 % of control

O=C(O)C(CCCCC1CCCCC1)CCC1CCCCC1 (stereo not drawn)
T/C (dose: 50.0 mg/kg/injection, schedule: Q01DX001 (ip), vehicle: saline with Tween-80): 100 % of control
T/C [6]: 100 % of control
T/C [7]: 100 % of control

CNC(=O)NC1C(O)C(CO)OC(OC)C1O (stereo not drawn)
T/C (dose: 100.0 mg/kg/injection, schedule: Q01DX001 (ip), vehicle: saline): 118 % of control
T/C (dose: 200.0 mg/kg/injection, schedule: Q01DX001 (ip), vehicle: saline): 100 % of control
T/C (dose: 400.0 mg/kg/injection, schedule: Q01DX001 (ip), vehicle: saline): 104 % of control

O=C(O)/C(Cc1cnc2ccccc2n1)=N\O
T/C [4]: 95 % of control
T/C [5]: 100 % of control
T/C (dose: 400.0 mg/kg/injection, schedule: Q04DX003 (ip), vehicle: saline with Tween-80): 91 % of control

CCC1CC2CCC(c3cc4c(cc3OC)N(C)C3C(O)(C(=O)OC)C(OC(C)=O)C5(CC)C=CCN6CCC43C65)c3[nH]c4ccccc4c3CCN(C1)C2 (stereo not drawn)
T/C (dose: 0.03 mg/kg/injection, schedule: Q01DX010 (ip), vehicle: saline): 90 % of control
T/C (dose: 0.06 mg/kg/injection, schedule: Q01DX010 (ip), vehicle: saline): 100 % of control
T/C (dose: 0.13 mg/kg/injection, schedule: Q01DX010 (ip), vehicle: saline): 90 % of control
T/C (dose: 0.25 mg/kg/injection, schedule: Q01DX010 (ip), vehicle: saline): 100 % of control
T/C (dose: 0.5 mg/kg/injection, schedule: Q01DX010 (ip), vehicle: saline): 95 % of control

CC[N+](CC)(CC)CCCCCC[N+](CC)(CC)CC
T/C (dose: 1.0 mg/kg/injection, schedule: Q01DX009 (ip), vehicle: water): 100 % of control
T/C (dose: 2.0 mg/kg/injection, schedule: Q01DX009 (ip), vehicle: water): 104 % of control
T/C (dose: 2.0 mg/kg/injection, schedule: Q04DX003 (ip), vehicle: water): 102 % of control and 103 % of control
T/C (dose: 4.0 mg/kg/injection, schedule: Q01DX009 (ip), vehicle: water): 97 % of control
T/C (dose: 4.0 mg/kg/injection, schedule: Q04DX003 (ip), vehicle: water): 116 % of control
T/C (dose: 6.0 mg/kg/injection, schedule: Q04DX003 (ip), vehicle: water): 102 % of control
T/C (dose: 6.25 mg/kg/injection, schedule: Q04DX003 (ip), vehicle: water): 123 % of control
T/C (dose: 8.0 mg/kg/injection, schedule: Q01DX009 (ip), vehicle: water): 104 % of control
T/C (dose: 8.0 mg/kg/injection, schedule: Q04DX003 (ip), vehicle: water): 100 % of control

N=[N+]=CC(=O)OCC(N)C(=O)O (stereo not drawn)
T/C (dose: 3.13 mg/kg/injection, schedule: Q01DX010 (ip), vehicle: saline): 150 % of control
T/C (dose: 6.25 mg/kg/injection, schedule: Q01DX010 (ip), vehicle: saline): 150 % of control and 165 % of control
T/C (dose: 10.0 mg/kg/injection, schedule: Q01DX010 (ip), vehicle: water): 120 % of control
T/C (dose: 12.5 mg/kg/injection, schedule: Q01DX010 (ip), vehicle: saline): 195 % of control and 200 % of control
T/C (dose: 15.0 mg/kg/injection, schedule: Q01DX010 (ip), vehicle: water): 120 % of control
T/C (dose: 25.0 mg/kg/injection, schedule: Q01DX010 (ip), vehicle: saline): 115 % of control

CC(CC(Sc1ccccc1)Sc1ccccc1)CC(Sc1ccccc1)Sc1ccccc1
T/C [1]: 100 % of control
T/C [2]: 92 % of control
T/C [3]: 106 % of control

CC1(C)N=C(N)N=C(N)N1c1ccc(C(N)=O)cc1
T/C (dose: 50.0 mg/kg/injection, schedule: Q01DX005 (ip), vehicle: Klucel (hydroxypropylcellulose) (HPC)): 109 % of control
T/C (dose: 100.0 mg/kg/injection, schedule: Q01DX005 (ip), vehicle: Klucel (hydroxypropylcellulose) (HPC)): 112 % of control

c1ccc(-c2cc(-c3ccccc3)[s+]s2)cc1
T/C (dose: 6.25 mg/kg/injection, schedule: Q01DX009 (ip), vehicle: saline with Tween-80): 111 % of control
T/C (dose: 12.5 mg/kg/injection, schedule: Q01DX009 (ip), vehicle: saline with Tween-80): 117 % of control and 124 % of control
T/C [8]: 91 % of control and 110 % of control and 115 % of control
T/C (dose: 25.0 mg/kg/injection, schedule: Q04DX003 (ip), vehicle: saline with Tween-80): 98 % of control
T/C [9]: 92 % of control and 113 % of control
T/C (dose: 50.0 mg/kg/injection, schedule: Q04DX003 (ip), vehicle: saline with Tween-80): 109 % of control and 115 % of control
T/C [10]: 98 % of control and 113 % of control
T/C [4]: 117 % of control and 118 % of control
T/C (dose: 200.0 mg/kg/injection, schedule: Q01DX009 (ip), vehicle: saline with Tween-80): 99 % of control and 120 % of control
T/C [5]: 108 % of control
T/C (dose: 300.0 mg/kg/injection, schedule: Q01DX009 (ip), vehicle: saline with Tween-80): 94 % of control

Cc1ccc(-c2nc3sccn3c2/C=N/NC(N)=S)cc1
T/C (dose: 100.0 mg/kg/injection, schedule: Q01DX001 (ip), vehicle: Klucel (hydroxypropylcellulose) (HPC)): 100 % of control
T/C (dose: 400.0 mg/kg/injection, schedule: Q01DX001 (ip), vehicle: Klucel (hydroxypropylcellulose) (HPC)): 95 % of control

CC1(C)Cc2cc3cc(Cl)ccc3nc2-c2ccccc21
T/C [11]: 110 % of control
T/C [12]: 110 % of control
T/C [13]: 105 % of control
T/C [14]: 115 % of control
T/C [15]: 110 % of control
T/C [16]: 110 % of control

COc1ccccc1C(=O)C(O)c1ccccc1OC (stereo not drawn)
T/C [12]: 95 % of control
T/C [14]: 104 % of control
T/C [16]: 108 % of control

C1CC2CCC[N]3C2C(C1)[O][Pb]31[O]C2CCCC3CCC[N]1C32 (stereo not drawn)
T/C (dose: 133.0 mg/kg/injection, schedule: Q04DX003 (ip), vehicle: saline with Tween-80): 96 % of control and 100 % of control
T/C [5]: 100 % of control and 104 % of control
T/C (dose: 300.0 mg/kg/injection, schedule: Q04DX003 (ip), vehicle: saline with Tween-80): 95 % of control and 104 % of control

COc1cc2c(cc1OC)-c1cc3cc(OC)c(OC)cc3c(C)[n+]1CC2 (tested in a mixture with another compound)
T/C [17]: 103 % of control
T/C [8]: 104 % of control
T/C [18]: 123 % of control
T/C [9]: 113 % of control
T/C [10]: 154 % of control

C/C=C1\CN2CCc3c([nH]c4ccccc34)C2CC1Cc1nccc2c1[nH]c1ccccc12 (stereo not drawn)
T/C (dose: 1.0 mg/kg/injection, schedule: Q04DX003 (ip), vehicle: saline): 98 % of control
T/C (dose: 2.0 mg/kg/injection, schedule: Q04DX003 (ip), vehicle: saline): 102 % of control
T/C (dose: 4.0 mg/kg/injection, schedule: Q04DX003 (ip), vehicle: saline): 102 % of control
T/C (dose: 6.0 mg/kg/injection, schedule: Q04DX003 (ip), vehicle: saline): 107 % of control
T/C (dose: 12.0 mg/kg/injection, schedule: Q04DX003 (ip), vehicle: saline): 103 % of control
T/C (dose: 24.0 mg/kg/injection, schedule: Q04DX003 (ip), vehicle: saline): 100 % of control
T/C (dose: 48.0 mg/kg/injection, schedule: Q04DX003 (ip), vehicle: saline): 100 % of control

COC(CN(C)CC(OC)OC)OC
T/C [11]: 90 % of control
T/C [13]: 100 % of control
T/C [15]: 100 % of control

C[C@]1(O)CC[C@H]2[C@@H]3CCC4=CC(=O)CCC4=C3C=C[C@@]21C
T/C [17]: 87 % of control
T/C (dose: 25.0 mg/kg/injection, schedule: Q01DX009 (ip), vehicle: Klucel (hydroxypropylcellulose) (HPC)): 91 % of control
T/C [18]: 91 % of control
T/C (dose: 100.0 mg/kg/injection, schedule: Q01DX009 (ip), vehicle: Klucel (hydroxypropylcellulose) (HPC)): 104 % of control
T/C [12]: 104 % of control
T/C (dose: 200.0 mg/kg/injection, schedule: Q01DX009 (ip), vehicle: Klucel (hydroxypropylcellulose) (HPC)): 109 % of control
T/C [14]: 104 % of control

O=C(NC(=O)c1c(F)cccc1F)Nc1ncc(Br)cc1Br
T/C [8]: 90 % of control
T/C [9]: 97 % of control
T/C [10]: 96 % of control

Cc1nnc2c(Cl)nccn12
T/C [6]: 106 % of control
T/C [7]: 106 % of control

NC(C(=O)O)C1=CCC=CC1 (stereo not drawn)
T/C [9]: 98 % of control
T/C [10]: 99 % of control
